According to patent US20050014215A1, “Method and medium for the detecting/identifying microorganisms with esterase and/or r osidase and/or peptidase and/or sulfatase and/or phosphatase activity” (priority 2000, published 2005):
Like-named read-outs stand apart in the source and are kept apart here.

Columns and labels:
[1] = system: Pseudomonas aeruginosa 165; experiment: Colony coloration on fresh and stored media, Example 10 (6-chloro-3-indolyl-β-N-acetylglucosaminide, Columbia); type: cell-based; set-up: key: M: magenta; —: colorless
Method: (§1) Two stock solutions of substrate were prepared, one having a concentration of 50 g/l in DMF and the other having a concentration of 50 g/l in a mixture of DMF (40%) and Tween® 20 (60%). A volume corresponding to a final concentration of 175 mg/l of substrate was then added to a supercooled gelled medium, namely Columbia medium not supplemented with blood. […] After three weeks, six weeks, nine weeks and twelve weeks, two media like those described above were prepared for immediate use.
(§2) Microorganisms originating from the Applicant's collection were inoculated from a 0.5 McFarland suspension, by isolation in three quadrants, onto the two media prepared for immediate use and the two media stored at +4° C. The dishes were incubated at 37° C. for 48 hours. The colonies formed were examined visually after 24 and 48 hours of incubation. The coloration of these colonies and the intensity of this coloration were noted.

[2] = system: Staphylococcus aureus 20; experiment: as above; type: cell-based; set-up: key: M: magenta; —: colorless
Method: as §1, §2

[3] = system: Listeria ivanovii 18; experiment: as above; type: cell-based; set-up: key to intensity of coloration (arbitrary scale): 0: no activity; 0.1: trace of coloration; 0.5: very pale coloration; 1: distinct coloration of low intensity; 2: clear coloration of medium intensity; 3: intense coloration; 4: very intense coloration; —: absence of coloration or intensity; key to color: M: magenta; —: colorless
Method: as §1, §2

[4] = system: Listeria innocua 36; experiment: as above; type: cell-based; set-up: key to intensity of coloration (arbitrary scale): 0: no activity; 0.1: trace of coloration; 0.5: very pale coloration; 1: distinct coloration of low intensity; 2: clear coloration of medium intensity; 3: intense coloration; 4: very intense coloration; —: absence of coloration or intensity; key to color: M: magenta; —: colorless
Method: as §1, §2

[5] = system: Listeria monocytogenes 23; experiment: as above; type: cell-based; set-up: key to intensity of coloration (arbitrary scale): 0: no activity; 0.1: trace of coloration; 0.5: very pale coloration; 1: distinct coloration of low intensity; 2: clear coloration of medium intensity; 3: intense coloration; 4: very intense coloration; —: absence of coloration or intensity; key to color: M: magenta; —: colorless
Method: as §1, §2

[6] = Appearance of stock solutions of 2-alizarin octanoate in solvent/Tween 20 (Example 7); type: physicochemical; details: 60% Tween 20
Method: The substrate tested is 1,2-dihydroxyanthraquinone octanoate (2-alizarin octanoate). Different stock solutions of substrate are prepared with DMF, DMSO, methanol or methoxyethanol as solvent and in the presence of Tween® 20 in all cases.

[7] = Substrate solubility with different FASE (Example 8); type: physicochemical
Method: Different stock solutions of substrate are prepared in DMSO in the presence of Tween® 20, Tween® 80 (polyethoxylated sorbitan monooleate), Tween® 60 (polyethoxylated sorbitan monostearate) or Tween® 65 (polyethoxylated sorbitan tristearate). A volume corresponding to a final concentration of 500 mg/l of substrate is then added to a supercooled gelled medium, namely MacConkey medium.

[8] = IT 24 h, fresh medium, DMF Tween 20, 6-week comparison
[9] = IT 24 h, fresh medium, DMF Tween 20, 9-week comparison
[10] = IT 24 h, fresh medium, DMF Tween 20, 12-week comparison
[11] = IT 24 h, fresh medium, DMF, 6-week comparison
[12] = IT 24 h, fresh medium, DMF, 9-week comparison
[13] = IT 24 h, fresh medium, DMF, 12-week comparison
[14] = IT 24 h, medium stored for 6 weeks at +4° C., DMF
[15] = IT 24 h, medium stored for 6 weeks at +4° C., DMF Tween 20
[16] = IT 24 h, medium stored for 9 weeks at +4° C., DMF
[17] = IT 24 h, medium stored for 9 weeks at +4° C., DMF Tween 20
[18] = IT 24 h, medium stored for 12 weeks at +4° C., DMF
[19] = IT 24 h, medium stored for 12 weeks at +4° C., DMF Tween 20
[20] = IT 48 h, fresh medium, DMF Tween 20, 6-week comparison
[21] = IT 48 h, fresh medium, DMF Tween 20, 9-week comparison
[22] = IT 48 h, fresh medium, DMF Tween 20, 12-week comparison
[23] = IT 48 h, fresh medium, DMF, 6-week comparison
[24] = IT 48 h, fresh medium, DMF, 9-week comparison
[25] = IT 48 h, fresh medium, DMF, 12-week comparison
[26] = IT 48 h, medium stored for 6 weeks at +4° C., DMF
[27] = IT 48 h, medium stored for 6 weeks at +4° C., DMF Tween 20
[28] = IT 48 h, medium stored for 9 weeks at +4° C., DMF
[29] = IT 48 h, medium stored for 9 weeks at +4° C., DMF Tween 20
[30] = IT 48 h, medium stored for 12 weeks at +4° C., DMF
[31] = IT 48 h, medium stored for 12 weeks at +4° C., DMF Tween 20

CC(=O)N[C@H]1[C@H](Oc2c[nH]c3cc(Cl)ccc23)O[C@H](CO)[C@@H](O)[C@@H]1O
—: color [1, 8] | color [1, 9] | color [1, 10] | color [1, 11] | color [1, 12] | color [1, 13] | color [1, 14] | color [1, 15] | color [1, 16] | color [1, 17] | color [1, 18] | color [1, 19] | color [1, 20] | color [1, 21] | color [1, 22] | color [1, 23] | color [1, 24] | color [1, 25] | color [1, 26] | color [1, 27] | color [1, 28] | color [1, 29] | color [1, 30] | color [1, 31] | color [2, 8] | color [2, 9] | color [2, 10] | color [2, 11] | color [2, 12] | color [2, 13] | color [2, 14] | color [2, 15] | color [2, 16] | color [2, 17] | color [2, 18] | color [2, 19] | color [2, 20] | color [2, 21] | color [2, 22] | color [2, 23] | color [2, 24] | color [2, 25] | color [2, 26] | color [2, 27] | color [2, 28] | color [2, 29] | color [2, 30] | color [2, 31]
2: intensity of coloration (arbitrary scale) [3, 26] | intensity of coloration (arbitrary scale) [3, 31] | intensity of coloration (arbitrary scale) [4, 8] | intensity of coloration (arbitrary scale) [4, 9] | intensity of coloration (arbitrary scale) [4, 10] | intensity of coloration (arbitrary scale) [4, 11] | intensity of coloration (arbitrary scale) [4, 12] | intensity of coloration (arbitrary scale) [4, 13] | intensity of coloration (arbitrary scale) [4, 15] | intensity of coloration (arbitrary scale) [4, 26] | intensity of coloration (arbitrary scale) [5, 8] | intensity of coloration (arbitrary scale) [5, 9] | intensity of coloration (arbitrary scale) [5, 10] | intensity of coloration (arbitrary scale) [5, 11] | intensity of coloration (arbitrary scale) [5, 12] | intensity of coloration (arbitrary scale) [5, 13] | intensity of coloration (arbitrary scale) [5, 15] | intensity of coloration (arbitrary scale) [5, 26] | intensity of coloration (arbitrary scale) [5, 29] | intensity of coloration (arbitrary scale) [5, 31]
1: intensity of coloration (arbitrary scale) [3, 17] | intensity of coloration (arbitrary scale) [3, 19] | intensity of coloration (arbitrary scale) [4, 14] | intensity of coloration (arbitrary scale) [4, 19] | intensity of coloration (arbitrary scale) [4, 28] | intensity of coloration (arbitrary scale) [5, 14] | intensity of coloration (arbitrary scale) [5, 17] | intensity of coloration (arbitrary scale) [5, 19]
M: color [3, 8] | color [3, 9] | color [3, 10] | color [3, 11] | color [3, 12] | color [3, 13] | color [3, 14] | color [3, 15] | color [3, 16] | color [3, 17] | color [3, 18] | color [3, 19] | color [3, 20] | color [3, 21] | color [3, 22] | color [3, 23] | color [3, 24] | color [3, 25] | color [3, 26] | color [3, 27] | color [3, 28] | color [3, 29] | color [3, 30] | color [3, 31] | color [4, 8] | color [4, 9] | color [4, 10] | color [4, 11] | color [4, 12] | color [4, 13] | color [4, 14] | color [4, 15] | color [4, 16] | color [4, 17] | color [4, 18] | color [4, 19] | color [4, 20] | color [4, 21] | color [4, 22] | color [4, 23] | color [4, 24] | color [4, 25] | color [4, 26] | color [4, 27] | color [4, 28] | color [4, 29] | color [4, 30] | color [4, 31] | color [5, 8] | color [5, 9] | color [5, 10] | color [5, 11] | color [5, 12] | color [5, 13] | color [5, 14] | color [5, 15] | color [5, 16] | color [5, 17] | color [5, 18] | color [5, 19] | color [5, 20] | color [5, 21] | color [5, 22] | color [5, 23] | color [5, 24] | color [5, 25] | color [5, 26] | color [5, 27] | color [5, 28] | color [5, 29] | color [5, 30] | color [5, 31]
2.5: intensity of coloration (arbitrary scale) [3, 20] | intensity of coloration (arbitrary scale) [3, 21] | intensity of coloration (arbitrary scale) [3, 22] | intensity of coloration (arbitrary scale) [3, 23] | intensity of coloration (arbitrary scale) [3, 24] | intensity of coloration (arbitrary scale) [3, 25] | intensity of coloration (arbitrary scale) [3, 27] | intensity of coloration (arbitrary scale) [3, 29] | intensity of coloration (arbitrary scale) [4, 29] | intensity of coloration (arbitrary scale) [4, 31]
3: intensity of coloration (arbitrary scale) [4, 20] | intensity of coloration (arbitrary scale) [4, 21] | intensity of coloration (arbitrary scale) [4, 22] | intensity of coloration (arbitrary scale) [4, 23] | intensity of coloration (arbitrary scale) [4, 24] | intensity of coloration (arbitrary scale) [4, 25] | intensity of coloration (arbitrary scale) [4, 27] | intensity of coloration (arbitrary scale) [5, 20] | intensity of coloration (arbitrary scale) [5, 21] | intensity of coloration (arbitrary scale) [5, 22] | intensity of coloration (arbitrary scale) [5, 23] | intensity of coloration (arbitrary scale) [5, 24] | intensity of coloration (arbitrary scale) [5, 25] | intensity of coloration (arbitrary scale) [5, 27]
0.5: intensity of coloration (arbitrary scale) [3, 14] | intensity of coloration (arbitrary scale) [3, 28] | intensity of coloration (arbitrary scale) [4, 16] | intensity of coloration (arbitrary scale) [4, 30] | intensity of coloration (arbitrary scale) [5, 16] | intensity of coloration (arbitrary scale) [5, 28]
1.5: intensity of coloration (arbitrary scale) [3, 8] | intensity of coloration (arbitrary scale) [3, 9] | intensity of coloration (arbitrary scale) [3, 10] | intensity of coloration (arbitrary scale) [3, 11] | intensity of coloration (arbitrary scale) [3, 12] | intensity of coloration (arbitrary scale) [3, 13] | intensity of coloration (arbitrary scale) [3, 15] | intensity of coloration (arbitrary scale) [4, 17]

1,2-dihydroxyanthraquinone octanoate [2-alizarin octanoate]
precipitate: Appearance of the stock solution ([6]; 40% DMSO) | Appearance of the stock solution ([6]; 40% methanol)
total: Appearance of the stock solution ([6]; 40% DMF) | Appearance of the stock solution ([6]; 40% methoxyethanol)

polyethoxylated sorbitan monolaurate containing 20 units of ethylene oxide (EO) [TWEEN® 20]
good substrate solubility: substrate solubility ([7]; 40% DMSO, 60% Tween)

polyethoxylated sorbitan monooleate (20 EO) [TWEEN® 80]
good substrate solubility: substrate solubility [7]

polyethoxylated sorbitan monostearate (20 EO) [TWEEN® 60]
good substrate solubility: substrate solubility [7]
